One block for each compound: values may come before it.
Key:
[1] = tested on: Mycoplasma species and other easily isolated bacteria; test: Pigs: bacteria cultured from bronchi; type: in vivo; details: HMB-fed pigs
Source text: (§1) Twelve specific pathogen free (SPF) pigs 4-5 weeks of age were distributed into two groups, each being blocked by gender and litter. All pigs were fed approximately 4% of their body weight of a commercially purchased starter ration. Pigs were penned individually and allowed free access to water.
(§2) Diets were supplemented with one of two dietary treatments: Control (limestone)(n=6) and HMB (n=6). Dietary treatments were fed at 0.05% of the body weight. HMB was synthesized by the method of Example 1. One week later, pigs were injected with 5 ml/30 kg body weight of a 20% suspension of sheep red blood cells (SRBC) subcutaneously.
(§3) Fourteen days post dietary treatments, all pigs were challenged via intratracheal inoculation with 5 ml of a ground lung suspension. The suspension was derived from pig pneumonic tissue obtained from a pig experimentally inoculated with Mycoplasma hyopneumoniae. […] Titers to Mycoplasma hyopneumoniae were determined using a serum complement fixation assay. At necropsy, the extent of macroscopic pneumonia lesions was recorded and samples from all pigs were submitted for histopathology to assay microscopic lesions. Lung and bronchi samples were cultured and evaluated for the presence of Mycoplasma species (i.e., M. hyorhinis, M. hyosynoviae, and M. hyopneumoniae) and other easily isolated bacteria (i.e., bordetella, pasteurella, and hemophilus).

[2] = tested on: sheep red blood cells (SRBC); test: Pigs: antibody titers against sheep red blood cells (agglutination assay); type: in vivo; details: HMB-fed pigs; control 11.6; * p < .05
Source text: as §1, §2, §3

lymphocytes = test: In vitro effects of leucine or leucine metabolites on PHA-stimulated lymphocyte blastogenesis (3H-thymidine incorporation); type: cell-based, bovine; details: for activation at 1000 µM: Bos taurus, Lymphocyte, 72 h, final concentration 1 mM, PHA stimulated, read-out: % Change from No Additive, in vitro lymphocyte blastogenesis (Mean Percent Change, SEM)
Description: Lymphocyte Blastogenesis Determinations. Blood collections, lymphocyte isolation and blastogenesis assays were performed on isolated bovine cells by using a 3-d culture procedure as described previously in Kuhlman, et al. (1988), J. Nutr., 118:1564-1569.
Isolated lymphocytes were exposed to 1 and 10 mM Leu and KIC and the metabolites isovalarate, β-hydroxy-β-methyl butyrate (HMB), β-hydroxy-β-methyl glutarate, butyrate, acetate, acetone, acetoacetate, and β-hydroxy butyrate (BOHB). The cells were then stimulated with the mitogen phytohemagglutinin, and incorporation of ^3 H-thymidine into the DNA of the dividing lymphocytes was measured.
Leucine and Leucine Metabolites. Most of the compounds listed in Table B were purchased from Sigma Chemical Company, St. Louis, MO. KIC was purchased from SOBAC (Paris, France), HMB was synthesized as described in Example 1, and the calcium salt of HMB was purified by crystallization in 95% ethanol. The calcium salt was converted to a sodium salt form and used in subsequent assays. The pH of all compounds was adjusted to approximately 7.3. Compounds were passed through a 0.2-um filter assembly to assure sterility.

[3] = Pigs: organ weights at necropsy; type: in vivo; details: HMB-fed pigs
Source text: as §1, §2
(§4) The iliac lymph nodes, liver, spleen, and gastrocnemius muscle were removed from the carcass and weighed. The nasal cavity was examined for evidence of Bordetella broncheseptica infection that will result in nasal turbinate degeneration. Nasal degeneration was scored as to severity with 0 indicating no lesions and the highest score, 3, corresponding to […] degeneration.

[4] = Stability of HMB (and KIC) in the rumen: incubation in diluted rumen fluid; type: in vitro ADME, steer; details: as far as is known; general statement, oral administration to ruminants
Mycoplasma hyopneumoniae = test: Pigs infected with Mycoplasma: lung lesions, lung fluorescent antibodies, antibody titers; type: in vivo
Source text: as §1, §2
Fourteen days post dietary treatments, all pigs were challenged via intratracheal inoculation with 5 ml of a ground lung suspension. The suspension was derived from pig pneumonic tissue obtained from a pig experimentally inoculated with Mycoplasma hyopneumoniae. Blood samples were collected once a week for the evaluation of antibodies produced in response to the SRBC and Mycoplasma hyopneumoniae antigenic stimuli. An agglutination assay was used to determine antibody titers produced against SRBC. Titers to Mycoplasma hyopneumoniae were determined using a serum complement fixation assay. At necropsy, the extent of macroscopic pneumonia lesions was recorded and samples from all pigs were submitted for histopathology to assay microscopic lesions. Lung and bronchi samples were cultured and evaluated for the presence of Mycoplasma species (i.e., M. hyorhinis, M. hyosynoviae, and M. hyopneumoniae) and other easily isolated bacteria (i.e., bordetella, pasteurella, and hemophilus).

isolated lymphocytes = test: HMB effects on lymphocyte function in lambs (ex vivo mitogen-stimulated blastogenesis after feeding)
Description: Animals and Experimental Design. Three sets of twin lambs were housed individually in fiberglass pens. Animals were randomly assigned to control or HMB diets, using a standard basal diet with and without 0.05% HMB.
Blood Sampling and Lymphocyte Preparation. In the first experiment, animals were bled for lymphocyte blastogenesis assays and T-cell subset analysis 38, 45, and 52 days after dietary treatments began. Blood (50 ml) was collected, aseptically, via jugular venepuncture into 10 ml acid-citrate-dextrose anticoagulant (44 g trisodium citrate, 16 g citric acid and 50 g dextrose per 1 of triple-distilled water). Blood was centrifuged, the buffy coat removed, and 1 volume of buffy coat was diluted with 0.5 volume of plasma which was added to 2 volumes of Sepracell-MN (Sepratech Corporation, Oklahoma City, Okla.). After further centrifugation at 1500 x g for 25 min, the mononuclear layer was removed and washed twice with Hanks' balanced salt solution (HBSS; Gibco, Grand Island, N.Y.) by centrifuging at 150 x g for 15 min. The remaining white blood cells were resuspended in HBSS, and the total number of white blood cells was determined by using an automated cell counter (Coulter Electronics, Hialeah, Fla.). The concentration of the cells was adjusted to 1×20^6 " cells/ml with HBSS.
Lymphocyte Blastogenesis Determinations. Blastogenesis assays were performed on isolated lymphocytes by using a 3-d culture procedure as described previously. Briefly, isolated lymphocytes were cultured in microtiter plates with 2×10^5 " cells in 0.15 ml of culture medium/well. Culture medium consisted of RPMI media-1640 (Gibco, Grand Island, N.Y.) containing 15% heat-inactivated fetal bovine serum and 1% antibiotic-antimycotic solution (Gibco, Grand Island, N.Y.). Unstimulated and mitogen-stimulated cultures were assayed in triplicate. Mitogens used were phytohemagglutinin-P (PHA), concanavalin A (ConA) and pokeweed mitogen (PWM). PHA was purchased from Difco Laboratories, Detroit, MI; ConA from Miles Laboratories, Elkhart, IN; and PWM from Gibco, New York, N.Y. Microtiter plates were incubated at 37° C. in a humidified 5% CO2 atmosphere. After 48 h, 0.25 uCi of ^3 H-thymidine (New England Nuclear, Boston, Mass.) was added to each well. Eighteen hours later, the cultures were harvested onto glass-fiber filters with an automated sample harvester (Flow Laboratories, Rockville, Mo.), filters were placed in 10 ml CytoScint scintillation solution (ICN Biomedicals, Irvine, CA), and radioactivity was counted in a liquid scintillation counter. This procedure is similar to that described by Kuhlman, et al., J. Nutr., 118:1564-1569.

[5] = Stability of HMB (and KIC) in the rumen: incubation in diluted rumen fluid; type: in vitro ADME, steer
Description: Rumen fluid was collected from a fistulated steer. After filtration and dilution (1:4) with an artificial saliva, 25ml of the solution was added to 50ml plastic tubes. Each tube was fitted with a one-way valve to allow gases to escape while not allowing air into the tube. Each tube was then gassed with C02 and incubated at 39° C. After 30 min a solution of KIC or HMB was added to the tube in concentrations to simulate what would be present in the rumen of an animal consuming .05% of the diet as KIC or HMB. It was estimated that a 50uM concentration would be attained in this case. At timed intervals 50ul samples of this rumen fluid were taken and analyzed for KIC and HMB.

[6] = tested on: Bordetella broncheseptica; test: Pigs: nasal degeneration scores; type: in vivo; details: HMB-fed pigs
Source text: as §1, §2, §4

T lymphocytes [7] = test: Activation of immune function of T lymphocytes, HMB compared with KIC; parameters: species or system mammals
[8] = cited from earlier work
T lymphocytes [9] = details: U.S. Pat. No. 4,835,185; cited from earlier work
[10] = rat feeding studies; cited from earlier work
[11] = U.S. Pat. No. 4,835,185; cited from earlier work
[12] = Before Treatment (baseline of HMB group)
[13] = 0 min after addition, rumen fluid diluted 1:4, 39° C., initial concentration of KIC was estimated
[14] = 15 min after addition, rumen fluid, 39° C.
[15] = 30 min after addition, rumen fluid, 39° C.
[16] = 60 min after addition, rumen fluid, 39° C.
[17] = 240 min after addition, rumen fluid, 39° C.
[18] = 480 min after addition, rumen fluid, 39° C.

Structure (SMILES): CC(C)(O)CC(=O)O [HMB, β-hydroxy-β-methyl butyric acid]
Bacteria cultured in the bronchi (in words) [1]: fewer bacteria cultured in the bronchi
Bronchi, presence of bacteria ([1]; control 1.1): 0.8
Red blood cell titers (dilution) day 10-15 [2]: 15.5 dilution
activation at 1000 µM (lymphocytes): 78%
Size of spleen and iliac lymph node (in words) [3]: smaller in HMB-fed animals
Iliac lymph node weight ([3]; control 3.8, * p < .05): 3.3 g
Spleen weight ([3]; control 101): 94 g
Rumen destruction (in words) [4]: not subject to significant rumen destruction
M. hyopneumoniae colonies by fluorescent antibody technique (in words) (Mycoplasma hyopneumoniae; HMB-fed pigs): decreased
Prevention of Mycoplasmal lung damage (in words) (Mycoplasma hyopneumoniae; HMB-fed pigs infected with M. hyopneumoniae): can prevent some of the lung damage associated with a Mycoplasmal lung agent
Lung or bronchi evaluations (in words) (Mycoplasma hyopneumoniae; HMB-fed pigs vs control): no significant differences were seen in the lung or bronchi evaluations
M. hyopneumoniae antibody titers (in words) (Mycoplasma hyopneumoniae; HMB-fed pigs vs control): no significant differences
Lung fluorescent antibodies to M. hyopneumoniae (Mycoplasma hyopneumoniae; HMB-fed pigs, control 12.6): 10.3
% lung showing lesions (Mycoplasma hyopneumoniae; HMB-fed pigs, control 18.7): 13.7%
M. hyopneumoniae peak titers (Mycoplasma hyopneumoniae; HMB-fed pigs, serum complement fixation, control 7.1): 6.7
Extent of mycoplasmal lung infection (in words) (Mycoplasma hyopneumoniae; vs KIC-fed or control animals, not statistically significant): lesser extent of mycoplasmal lung infection than did KIC-fed or control animals
Decays Per Min of 3H Thymidine Incorporated into Isolated Lymphocytes, PHA Stimulation (isolated lymphocytes; After Treatment, diet with 0.05% HMB, control 15,000): 18,000 Decays Per Min
Decays Per Min of 3H Thymidine Incorporated into Isolated Lymphocytes, PWM Stimulation (isolated lymphocytes; After Treatment, diet with 0.05% HMB, control 18,000): 25,000 Decays Per Min
Decays Per Min of 3H Thymidine Incorporated into Isolated Lymphocytes, ConA Stimulation (isolated lymphocytes; After Treatment, diet with 0.05% HMB, control 19,000): 21,000 Decays Per Min
Decays Per Min of 3H Thymidine Incorporated into Isolated Lymphocytes, ConA Stimulation (isolated lymphocytes; [12]): 41,000 Decays Per Min
Decays Per Min of 3H Thymidine Incorporated into Isolated Lymphocytes, PHA Stimulation (isolated lymphocytes; [12]): 23,000 Decays Per Min
Decays Per Min of 3H Thymidine Incorporated into Isolated Lymphocytes, PWM Stimulation (isolated lymphocytes; [12]): 21,000 Decays Per Min
Change in 3H Thymidine incorporation, PWM Stimulation (isolated lymphocytes; after minus before treatment, change in control -14,000): +4,000 Decays Per Min
Change in 3H Thymidine incorporation, PHA Stimulation (isolated lymphocytes; after minus before treatment, change in control -22,000): -5,000 Decays Per Min
Change in 3H Thymidine incorporation, ConA Stimulation (isolated lymphocytes; after minus before treatment, change in control -29,000): -20,000 Decays Per Min
Effect on decline in lymphocyte function (in words) (isolated lymphocytes; lambs, 0.05% HMB diet): tended to effect the decline in lymphocyte function
Stability in rumen environment (in words) [5]: quite stable in a rumen environment
KIC / HMB in rumen fluid [5, 13]: 60 µM
KIC / HMB in rumen fluid [5, 14]: 76 µM
KIC / HMB in rumen fluid [5, 15]: 81 µM
KIC / HMB in rumen fluid [5, 16]: 71 µM
KIC / HMB in rumen fluid [5, 17]: 74 µM
KIC / HMB in rumen fluid [5, 18]: 74 µM
Nasal degeneration due to bordetella infection (in words) [6]: significant decrease in nasal degeneration due to bordetella infection
Severity of nasal turbinate lesions (in words) [6]: less severe lesions of the nasal turbinates
Nasal degeneration scores (0 = no lesion) ([6]; highest score 3 = moderate degeneration, control 1.6, * p < .05): 0.8
Activation of immune function of T lymphocytes relative to KIC (in words) (T lymphocytes [7]): markedly more effective for activating the immune function of T lymphocytes

Stability in rumen environment (in words) [5]: rapidly destroyed by the rumen bacteria
KIC / HMB in rumen fluid [5, 13]: 30 µM
KIC / HMB in rumen fluid [5, 14]: 15 µM
KIC / HMB in rumen fluid [5, 15]: 4 µM
KIC / HMB in rumen fluid [5, 16]: 2 µM
KIC / HMB in rumen fluid [5, 17]: 2 µM
KIC / HMB in rumen fluid [5, 18]: 1 µM
Structure (SMILES): CC(C)CC(=O)C(=O)O [KIC, α-keto-isocaproic acid]
Cholesterol in meat, milk and eggs (in words) ([8]; U.S. Pat. Nos. 4,760,090 and 4,760,531): cholesterol reduction in meat, milk and eggs
Milk production (in words) ([8]; lactating domestic animals, U.S. Pat. No. 4,758,593): the quantity of milk produced may be increased
Egg production (in words) ([8]; laying chickens, U.S. Pat. No. 4,760,531): can also sometimes be increased
Wool production (in words) ([8]; mature sheep, U.S. Pat. No. 4,760,090): the amount of wool produced may also be increased
Weight gain and/or feed efficiencies (in words) ([8]; milligram amounts of KIC, U.S. Pat. Nos. 4,760,090 and 4,883,817): some increases in the rates of weight gain and/or feed efficiencies
Blastogenesis function (in words) (T lymphocytes [9]): activating the blastogenesis function of the immune systems
Amount of KIC required to replace leucine [10]: two to three times as much KIC as the nutritionally required amount of leucine
Direct effect on the immune system (in words) (lymphocytes): have no effect on he immune system directly
Effect on blastogenesis (in words) (lymphocytes): had no effects on blastogenesis
activation at 1000 µM (lymphocytes): -3 ± 7%
Plasma cortisol levels (in words) [11]: will usually decrease plasma cortisol levels

Structure (SMILES): CC(C)C[C@H](N)C(=O)O [Leucine, L-leucine]
Direct effect on the immune system (in words) (lymphocytes): have no effect on he immune system directly
Effect on blastogenesis (in words) (lymphocytes): tended to suppress blastogenesis
activation at 1000 µM (lymphocytes): -12 ± 6%

From US4992470A, “Method of enhancing immune response of mammals” (Iowa State University Research Foundation, Inc., priority 1990, dated 1991)
